Measurements published in patent publication US10869483B2, “Coniothyrium minitans for use against moss growth” (Bayer CropScience Aktiengesellschaft, priority 2015, dated 2020).

Tested on: haircup moss growth
Test: Drench test (greenhouse, moss growth on soil surface)
Assay type: in vivo
Settings: 6.25 kg/ha = 20 μL/mL, 20 mL drench onto soil, 19 weeks, 15° C., 0% = untreated control, 100% = no moss growth
Procedure: The test was carried out under greenhouse conditions.
120 mL of a mixture of steamed field soil and sand (1:1) was filled into transparent cylindrical vessels 5.5 cm in size.
The test formulation, the product CONTANS®, comprising 1×10^9 spores of the strain Coniothyrium minitans CON/M/91-08, was dissolved in water and diluted with water to the desired concentrations. 20 mL of the made-up solutions were pipetted onto the soil in the vessels.
The vessels were covered with a transparent lid.
The vessels remained in the greenhouse for the next 19 weeks, at 15° C. and at natural light conditions. The lids were opened slightly after approximately 2 weeks, and the soil was watered every 3 weeks and kept moist.
The evaluation was effected by estimating, per vessel, the soil surface area which had in the meantime been covered by growth, predominantly haircup moss growth. 0% means an efficacy which corresponds to that of the untreated control, while an efficacy of 100% means that no moss growth was discernible.

CCCCCCCCCC[N+](C)(C)CCCCCCCCCC.[Cl-] [DDAC-C10, Didecyldimethylammonium chloride with alkyl chain length C10]
Efficacy %: 100%
